Usually IC50 stands for the concentration at which inhibition is half-maximal.

Structures are written as SMILES.

These results are taken from patent US10035790B2, “RORγ modulators” (BRISTOL-MYERS SQUIBB COMPANY, priority 2012, dated 2018).

The target in the experiment is T1, ligand binding domain of human RORγ (A262-S507) (Homo sapiens, UniProt P51449).
T1 construct: made in house; host or cells: E. coli
T1 sequence (P51449 262-507): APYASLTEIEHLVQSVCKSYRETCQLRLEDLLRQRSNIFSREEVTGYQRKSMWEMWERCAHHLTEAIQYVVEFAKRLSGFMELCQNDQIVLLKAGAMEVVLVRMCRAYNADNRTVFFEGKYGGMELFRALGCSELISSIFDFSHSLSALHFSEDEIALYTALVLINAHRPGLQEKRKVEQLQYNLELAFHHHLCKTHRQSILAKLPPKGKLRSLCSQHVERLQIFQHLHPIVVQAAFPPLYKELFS
Description: General RORγ SPA binding assay (competition with [3H]25-hydroxycholesterol). To be noted: RORγ SPA binding assay, inhibition of [3H]25-hydroxycholesterol binding; read-out: IC50. In a few lines:
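N-terminally His-tagged protein was expressed in E. coli and nickel-purified. Then 50 nM protein was preincubated with compound for 15 min at room temperature in PBS with 0.5% fatty acid free BSA, followed by radioligand for 15 min and copper His-tag SPA beads for 30 min. IC50 came from percent inhibition of binding.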
Consider `CCc1ncc(C(=O)NCc2cc(C)cc(C)c2)c(C2CCN(C(=O)Cc3c(F)cccc3F)CC2)n1` [Compound A64, 4-(1-(2-(2,6-difluorophenyl)acetyl)piperidin-4-yl)-N-(3,5-dimethylbenzyl)-2-ethylpyrimidine-5-carboxamide], for which the IC50 turned out to be 64 nM. Turning to `CC(=O)NCC(O)(COc1cccc(C(F)(F)F)n1)c1cnc(C)nc1C1CCN(C(=O)Oc2c(F)cccc2F)CC1` (stereo not drawn) [Compound N47, 2,6-Difluorophenyl 4-{5-[2-(acetylamino)-1-hydroxy-1-({[6-(trifluoromethyl)pyridin-2-yl]oxy}methyl)ethyl]-2-methylpyrimidin-4-yl}piperidine-1-carboxylate], the IC50 was determined as 3.6 nM. The result for `C/C(=N\Oc1cc(C)ccc1C)c1cnc(C)nc1C1CCN(C(=O)Cc2c(F)cccc2F)CC1` [Compound B18, (E)-2-(2,6-difluorophenyl)-1-(4-(5-(1-((2,5-dimethylphenoxy)imino)ethyl)-2-methylpyrimidin-4-yl)piperidin-1-yl)ethanone] reads 11.2 nM. For `C/C(=N\Oc1ccnc(C#N)c1)c1cnc(C)nc1C1CCN(C(=O)Cc2c(F)cccc2F)CC1` [Compound B13, (E)-4-(((1-(4-(1-(2-(2,6-difluorophenyl)acetyl)piperidin-4-yl)-2-methylpyrimidin-5-yl)ethylidene)amino)oxy)picolinonitrile] the value was 4.7 nM; for `C/C(=N\Oc1cc(Cl)nc(C(F)(F)F)c1)c1cnc(C)nc1C1CCN(C(=O)Nc2c(F)cccc2F)CC1` [Compound B40, 4-{5-[(1E)-N-{[2-chloro-6-(trifluoromethyl)pyridin-4-yl]oxy}ethanimidoyl]-2-methylpyrimidin-4-yl}-N-(2,6-difluorophenyl)piperidine-1-carboxamide], 21.4 nM.

Regarding `Cc1nc(C)c(-c2nnc(-c3ccnc(C(F)(F)F)n3)o2)c(C2CCN(C(=O)Nc3ccccc3OC(F)(F)F)CC2)n1` [Compound C32, 4-(2,6-dimethyl-5-{5-[2-(trifluoromethyl)pyrimidin-4-yl]-1,3,4-oxadiazol-2-yl}pyrimidin-4-yl)-N-{2-[(trifluoromethyl)oxy]phenyl}piperidine-1-carboxamide], the IC50 was 159 nM. The result for `C/C(=N\Oc1cc(C)nc(C(F)(F)F)n1)c1cnc(C)nc1C1CCN(C(=O)Nc2c(F)cccc2F)CC1` [Compound B42, N-(2,6-difluorophenyl)-4-{2-methyl-5-[(1E)-N-{[6-methyl-2-(trifluoromethyl)pyrimidin-4-yl]oxy}ethanimidoyl]pyrimidin-4-yl}piperidine-1-carboxamide] reads 151 nM; that for `Cc1ncc(C(=O)NCc2cccc(C(F)(F)F)n2)c(C2CCN(C(=O)Cc3c(F)cccc3F)CC2)n1` [Compound A44, 4-(1-(2-(2,6-difluorophenyl)acetyl)piperidin-4-yl)-2-methyl-N-((6-(trifluoromethyl)pyridin-2-yl)methyl)pyrimidine-5-carboxamide], 5.7 nM. For `Cc1ncc(C2(COc3cccc(C(F)(F)F)n3)CCO2)c(C2CCN(C(=O)Nc3c(F)cccc3F)CC2)n1` (stereo not drawn) [Compound N51, N-(2,6-Difluorophenyl)-4-{2-methyl-5-[2-({[6-(trifluoromethyl)pyridin-2-yl]oxy}methyl)oxetan-2-yl]pyrimidin-4-yl}piperidine-1-carboxamide] the value was 4.9 nM; for `Cc1ncc(C(=O)NOc2cccc(Cl)c2)c(C2CCN(C(=O)Cc3c(F)cccc3F)CC2)n1` [Compound H3, N-(3-chlorophenoxy)-4-(1-(2-(2,6-difluorophenyl)acetyl)piperidin-4-yl)-2-methylpyrimidine-5-carboxamide], 84 nM. The result for `CSc1ncc(C(=O)COc2ccnc(C(F)(F)F)n2)c(C2CCN(C(=O)Nc3c(F)cccc3F)CC2)n1` [Compound M2, N-(2,6-Difluorophenyl)-4-[2-(methylthio)-5-({[2-(trifluoromethyl)pyrimidin-4-yl]oxy}acetyl)pyrimidin-4-yl]piperidine-1-carboxamide] reads 18.6 nM.

`Cc1ncc(C(=O)NOc2cc(F)cc(Cl)c2)c(C2CCN(C(=O)Cc3c(F)cccc3F)CC2)n1` [Compound H6, N-(3-chloro-5-fluorophenoxy)-4-(1-(2-(2,6-difluorophenyl)acetyl)piperidin-4-yl)-2-methylpyrimidine-5-carboxamide]: the IC50 amounted to 1630 nM.

For the compound `Cc1nc(C)c(C(O)COc2ccnc(C(F)(F)F)n2)c(C2CCN(C(=O)Nc3c(F)cccc3F)CC2)n1` (stereo not drawn) [Compound M9, N-(2,6-Difluorophenyl)-4-[5-(1-hydroxy-2-{[2-(trifluoromethyl)pyrimidin-4-yl]oxy}ethyl)-2,6-dimethylpyrimidin-4-yl]piperidine-1-carboxamide], the IC50 was 2 nM. For `O=C(NCc1ccc(Cl)c(Cl)c1)c1cnc(C(F)(F)F)nc1C1CCN(C(=O)Cc2c(F)cccc2F)CC1` [Compound A21, N-(3,4-dichlorobenzyl)-4-(1-(2-(2,6-difluorophenyl)acetyl)piperidin-4-yl)-2-(trifluoromethyl)pyrimidine-5-carboxamide] the value was 209 nM; for `Cc1ncc(C(=O)NCc2ccc(C(F)(F)F)nc2)c(C2CCN(C(=O)Cc3c(F)cccc3F)CC2)n1` [Compound A74, 4-(1-(2-(2,6-difluorophenyl)acetyl)piperidin-4-yl)-2-methyl-N-((6-(trifluoromethyl)pyridin-3-yl)methyl)pyrimidine-5-carboxamide], 619 nM; for `Cc1nc(C)c(C(=O)NOc2cccc(Cl)c2)c(C2CCN(C(=O)Cc3c(F)cccc3F)CC2)n1` [Compound H5, N-(3-chlorophenoxy)-4-(1-(2-(2,6-difluorophenyl)acetyl)piperidin-4-yl)-2,6-dimethylpyrimidine-5-carboxamide], 503 nM.

With `Cc1cc(CNC(=O)c2cnc(C)nc2C2CCN(C(=O)Cc3c(F)cccc3F)CC2)cc(C)n1` [Compound A73, 4-(1-(2-(2,6-difluorophenyl)acetyl)piperidin-4-yl)-N-((2,6-dimethylpyridin-4-yl)methyl)-2-methylpyrimidine-5-carboxamide], the half-inhibitory concentration (IC50) turned out to be 426 nM.

On to `Cc1ncc(C(F)(F)CNc2ccnc(C(F)(F)F)n2)c(C2CCN(C(=O)Cc3c(F)cccc3F)CC2)n1` [Compound N19, N-[2-(4-{1-[(2,6-Difluorophenyl)acetyl]piperidin-4-yl}-2-methylpyrimidin-5-yl)-2,2-difluoroethyl]-2-(trifluoromethyl)pyrimidin-4-amine], for which the IC50 is 6.5 nM.

Regarding `Cc1ncc(C(=O)NCc2cnc(Cl)s2)c(C2CCN(C(=O)Cc3c(F)cccc3F)CC2)n1` [Compound A72, N-((2-chlorothiazol-5-yl)methyl)-4-(1-(2-(2,6-difluorophenyl)acetyl)piperidin-4-yl)-2-methylpyrimidine-5-carboxamide], the half-inhibitory concentration (IC50) was 317 nM. For `Cc1nc(C2CCN(C(=O)Cc3c(F)cccc3F)CC2)c(C(=O)NCc2cccc(Cl)c2)c(=O)[nH]1` [Compound I4, N-(3-chlorobenzyl)-4-(1-(2-(2,6-difluorophenyl)acetyl)piperidin-4-yl)-2-methyl-6-oxo-1,6-dihydropyrimidine-5-carboxamide] the value was 10.9 nM; for `Cc1ncc(C(C)(O)CNc2ccnc(Cl)c2)c(C2CCN(C(=O)Cc3c(F)cccc3F)CC2)n1` (stereo not drawn) [Compound D7, 1-(4-(5-(1-((2-chloropyridin-4-yl)amino)-2-hydroxypropan-2-yl)-2-methylpyrimidin-4-yl)piperidin-1-yl)-2-(2,6-difluorophenyl)ethanone], 80 nM; for `Cc1nc(C)c(C(=O)NCc2ccnc(C#N)c2)c(C2CCN(C(=O)Cc3c(F)cccc3F)CC2)n1` [Compound A83, N-((2-cyanopyridin-4-yl)methyl)-4-(1-(2-(2,6-difluorophenyl)acetyl)piperidin-4-yl)-2,6-dimethylpyrimidine-5-carboxamide], 45.8 nM. The result for `Cc1cc(C)cc(CNC(=O)c2cnc(C)nc2C2CCN(C(=O)Cc3cccc4ccccc34)CC2)c1` [Compound A19, N-(3,5-dimethylbenzyl)-2-methyl-4-(1-(2-(naphthalen-1-yl)acetyl)piperidin-4-yl)pyrimidine-5-carboxamide] reads 155 nM. For `Cc1nc(C)c(-c2nnc(-c3ccnc(C(F)(F)F)n3)o2)c(C2CCN(C(=O)Oc3ccccc3Cl)CC2)n1` [Compound C45, 2-Chlorophenyl 4-(2,6-dimethyl-5-{5-[2-(trifluoromethyl)pyrimidin-4-yl]-1,3,4-oxadiazol-2-yl}pyrimidin-4-yl)piperidine-1-carboxylate] the value was 42.8 nM; for `CC(=O)NCC(O)(COc1cccc(C(F)(F)F)n1)c1cnc(C)nc1C1CCN(C(=O)Oc2ccc(F)cc2)CC1` (stereo not drawn) [Compound N46, 4-Fluorophenyl 4-{5-[2-(acetylamino)-1-hydroxy-1-({[6-(trifluoromethyl)pyridin-2-yl]oxy}methyl)ethyl]-2-methylpyrimidin-4-yl}piperidine-1-carboxylate], 39 nM; for `[2H]C([2H])c1nc(C)c(-c2nnc(-c3ccnc(C(F)(F)F)n3)o2)c(C2CCN(C(=O)C([2H])c3c(F)cccc3F)CC2)n1` (stereo not drawn) [Compound C37, 4-{1-[(2,6-Difluorophenyl)acetyl-2-d]piperidin-4-yl}-2-methyl-d2-6-methyl-5-{5-[2-(trifluoromethyl)pyrimidin-4-yl]-1,3,4-oxadiazol-2-yl}pyrimidine], 22.1 nM. As for `O=C(NCc1cccc(Cl)c1)c1cnc(NCCO)nc1C1CCN(C(=O)Cc2c(F)cccc2F)CC1` [Compound A87, N-(3-chlorobenzyl)-4-(1-(2-(2,6-difluorophenyl)acetyl)piperidin-4-yl)-2-((2-hydroxyethyl)amino)pyrimidine-5-carboxamide], the IC50 was 1.7 nM.
